Entries after “also recorded” stand apart in the source; their conditions may differ.
What was measured:
T-cells [1] = assay: T-cell proliferation induced by ConA plus added IL-2, [3H]-thymidine incorporation; type: cell-based, C57BL/6 mouse; conditions: 1 μg/ml ConA and 10 unit/ml IL-2; 3, 10, 30 ng/ml compound
Description: (§1) T-cells were separated from the spleen of the C57BL/6 mouse for the experiment. 1 μg/ml ConA and 10 unit/ml IL-2 were used to generate the proliferation of T-cells. In the control group, 1 μg/ml ConA induced the proliferation of T-cells. Prodigiosin was melted in DMSO and added to the culture medium in a manner to achieve a final concentration of 3, 10, 30 ng/ml. After 60 hours of cultivation, [^3H]-thymidine was added to the culture medium with a concentration of 1 μCi/well. After 12 hours, the cells were collected and the amount of radioactivity in the DNA was measured.
as §1, with “Prodigiosin was melted in DMSO and added to the culture medium in a manner to achieve a final concentration of 3, 10, 30 ng/ml.” left out

IL-2 dependent T-cells = assay: IL-2-dependent T-cell proliferation (ConA pre-treated cells), [3H]-thymidine incorporation; type: cell-based, C57BL/6 mouse; conditions: cells pre-treated with 1 μg/ml ConA 48 hours, washed, 10 unit/ml IL-2; 3, 10, 30 ng/ml compound
Description: (§2) In order to measure IL-2 dependent T-cell proliferation, T-cells separated from the spleen of the mouse were treated with 1 μg/ml ConA for 48 hours. Then, the cells were washed three times to get rid of all ConA for further experiment. […] 10 unit/ml IL-2 was added to the pre-treated cells to induce T-cell proliferation (IL-2-dependent T cell proliferation).
Prodigiosin was melted in DMSO and added to the culture medium in a manner to achieve a final concentration of 3, 10, 30 ng/ml. After 60 hours of cultivation, [^3H]-thymidine was added to the culture medium with a concentration of 1 μCi/well. After 12 hours, the cells were collected and the amount of radioactivity in the DNA was measured.
as §2, with “all the” for “all”, “T-cell” for “T cell”
After 60 hours of cultivation, [^3H]-thymidine was added to the culture medium with a concentration of 1 μCi/well. After 12 hours, the cells were collected and the amount of radioactivity in the DNA was measured.

IL-2 mRNA = assay: Expression of IL-2 mRNA in ConA-activated T-cells, RT-PCR; type: cell-based, C57BL/6 mouse; conditions: 1 μg/ml ConA, 4 hours, 3, 10, 30 ng/ml compound
Description: T-cells were separated from the spleen of the C57BL/6 mouse for the experiment. 1 μg/m ConA was used to activate the T-cells. […]. After 4 hours of cultivation, the cells were collected. After separating the RNA from the cells, the degree of expression of IL-2 mRNA was measured through RT-PCR (reverse transcription-polymerase chain reaction).

[2] = test system: IL-2 receptors (IL-2R alpha); assay: Expression of IL-2 receptor (IL-2R alpha) mRNA in ConA-activated T-cells, RT-PCR; type: cell-based, C57BL/6 mouse; conditions: 1 μg/ml ConA, 4 hours, 3, 10, 30 ng/ml compound
[3] = test system: acute graft-versus-host disease; type: in vivo, Balb/c mouse; conditions: 1 mg/kg, peritoneal injections every other day; weight loss from 2nd to 6th day, regain from 7th day; control mice lost weight up to 9th day and died
From the text: (§3) To induce acute graft-versus-host disease, bone marrow cells (5×10^7 cells) and spleen cells (1×10^7 cells) of the C57BL/6 mouse were transplanted to the Balb/c mouse, which had been irradiated and had lost immune function.

[4] = test system: acute graft-versus-host disease; assay: Mouse survival in acute graft-versus-host disease after bone marrow transplantation; type: in vivo, Balb/c mouse; conditions: 1 mg/kg, peritoneal injections every other day
From the text: as §3

T-cells [5] = assay: ConA-induced T-cell proliferation, [3H]-thymidine incorporation; type: cell-based, C57BL/6 mouse; conditions: 1 μg/ml ConA; 3, 10, 30 ng/ml compound
Description: (§4) T-cells were separated from the spleen of the C57BL/6 mouse for the experiment. 1 μg/ml concanavalin A (ConA) was used to generate the proliferation of T-cells, and 1 μg/ml lypopolysaccaride induced proliferation of the B-cells. The prodigiosin separated in Execution Example 1 was melted in dimethyl sulfoxide (DMSO) and was added to the culture medium in a manner to achieve a final concentration of 3, 10, 30 ng/ml. After 60 hours of cultivation, [^3H]-thymidine was added to the culture medium with a concentration of 1 μCi/well. After 12 hours, the cells were collected and the amount of radioactivity in the DNA was measured.
T-cells were separated from the spleen of the C57BL/6 mouse for the experiment. 1 μg/ml ConA and 10 unit/ml IL-2 were used to generate the proliferation of T-cells. In the control group, 1 μg/ml ConA induced the proliferation of T-cells. […] After 12 hours, the cells were collected and the amount of radioactivity in the DNA was measured.
T-cells were separated from the spleen of the C57BL/6 mouse for the experiment. […] After 12 hours, the cells were collected and the amount of radioactivity in the DNA was measured. […]
Prodigiosin was melted in DMSO and added to the culture medium in a manner to achieve a final concentration of 3, 10, 30 ng/ml. […] After 12 hours, the cells were collected and the amount of radioactivity in the DNA was measured. […]

B-cells = assay: Lipopolysaccharide-induced B-cell proliferation, [3H]-thymidine incorporation; type: cell-based, C57BL/6 mouse; conditions: 1 μg/ml lipopolysaccharide; 3, 10, 30 ng/ml compound
Description: as §4

CCCCCC1=C/C(=C/c2[nH]c(-c3ccc[nH]3)cc2OC)N=C1C [prodigiosin]
effect of added IL-2 on the suppression of T-cell proliferation (T-cells [1]): did not suppress the excessive amount of IL-2 that was added from the outside | effect on IL-2-dependent T-cell proliferation (IL-2 dependent T-cells): did not suppress the T-cell proliferation by IL-2 | effect on expression of IL-2 mRNA (IL-2 mRNA): did not influence the expression of IL-2 mRNA | effect on expression of IL-2 receptor mRNA [2]: efficiently suppressed the expression of IL-2 mRNA | changes in weight of the mice [3]: recovered normal weight by the 14th day | Balb/c mice died six days after the cell transplantation ([4]; control group 50% died by day 6): 35% | mice survived through to the end of the experiment ([4]; observed for 14 days, all control mice died by the 10th day): 65% | effect on proliferation of T-cells induced by ConA (T-cells [5]): selectively suppressed the proliferation of T-cells; also recorded: suppressed T-cells proliferated by ConA | effect on proliferation of B-cells (B-cells): could not suppress the proliferation of B-cells
